Source: US9211310B2, “Use of a Chinese medicine composition in preparing medicaments for treating secondary prevention of myocardial infarction” (TASLY PHARMACEUTICAL GROUP CO., LTD, priority 2010, dated 2015)

Test system: patients after acute myocardial infarction
Assay: Life quality, Seattle Angina Questionnaire (SAQ), same clinical trial
Assay type: in vivo, human
Excerpt: 3508 patients who were in accordance with the diagnostic standards of AMI for 28 days to 2 years and differentiated as Qi deficiency and blood stagnation syndrome by TCM were studied. 0.5 g Chinese medicine composition prepared by the method of EXAMPLE 1 (Coded as QSYQ) was administrated half an hour after meal, 3 times per day.
There were 19 questions in the Seattle angina questionnaire (SAQ), including 5 parts: physical limitation (PL), anginal stability (AS), anginal frequency (AF), treatment satisfaction (TS) and disease perception (DP). After being given necessary explanation by doctors, the questions were answered independently by patients.
They included the overall survival time, angina pectoris score, TCM symptom score and life quality score, where angina pectoris score, TCM symptom score and life quality score were evaluated at randomization, in 1st, 3rd, 6th, 9th, 12th month after treatment and 18th month after follow-up.
All evaluation results of SAQ were described during the period of observation, and Wilcoxon rank sum test was used for inter-group comparison.
The evaluation results in the SAQ were depicted in different observations, and inter-group comparison was tested by Wilcoxon Rank-sum test.

CC(=O)Oc1ccccc1C(=O)O [Control group, aspirine]
SAQ Question 1-5: Slightly limited, percent of patients (12 months after treatment, PP): (29.70%) | SAQ Question 1-9: Mildly limited, % of cases (12 months after treatment, PP): (20.07%) | SAQ Question 1-9: Mildly limited, cases (12 months after treatment, PP): 278 | SAQ Question 1-9: Moderately limited, % of cases (12 months after treatment, PP): (20.87%) | SAQ Question 1-9: Moderately limited, cases (12 months after treatment, PP): 289 | SAQ Question 1-9: Not limited, % of cases (12 months after treatment, PP): (5.05%) | SAQ Question 1-9: Not limited, cases (12 months after treatment, PP): 70 | SAQ Question 1-9: Other reasons, % of cases (12 months after treatment, PP): (6.28%) | SAQ Question 1-9: Other reasons, cases (12 months after treatment, PP): 87 | SAQ Question 1-9: Severely limited, % of cases (12 months after treatment, PP): (29.75%) | SAQ Question 1-9: Severely limited, cases (12 months after treatment, PP): 412 | SAQ Question 1-9: Slightly limited, % of cases (12 months after treatment, PP): (17.98%) | SAQ Question 1-9: Slightly limited, cases (12 months after treatment, PP): 249 | SAQ 2nd question: Clearly increased, % of cases (Baseline, FAS): (3.17%) | SAQ 2nd question: Clearly increased, cases (Baseline, FAS): 55 | SAQ 2nd question: Clearly reduced, % of cases (Baseline, FAS): (12.46%) | SAQ 2nd question: Clearly reduced, cases (Baseline, FAS): 216 | SAQ 2nd question: Same, % of cases (Baseline, FAS): (62.09%) | SAQ 2nd question: Same, cases (Baseline, FAS): 1076 | SAQ 2nd question: Slightly increased, % of cases (Baseline, FAS): (6.92%) | SAQ 2nd question: Slightly increased, cases (Baseline, FAS): 120 | SAQ 2nd question: Slightly reduced, % of cases (Baseline, FAS): (15.35%) | SAQ 2nd question: Slightly reduced, cases (Baseline, FAS): 266 | SAQ 3rd question: 1-2 times per week, % of cases (Baseline, FAS): (15.35%) | SAQ 3rd question: 1-2 times per week, cases (Baseline, FAS): 266 | SAQ 3rd question: 1-3 times per day, % of cases (Baseline, FAS): (6.92%) | SAQ 3rd question: 1-3 times per day, cases (Baseline, FAS): 120 | SAQ 3rd question: <1 time per week, % of cases (Baseline, FAS): (12.46%) | SAQ 3rd question: <1 time per week, cases (Baseline, FAS): 216 | SAQ 3rd question: No onset, % of cases (Baseline, FAS): (0.00%) | SAQ 3rd question: No onset, cases (Baseline, FAS): 0 | SAQ 3rd question: ≧3 times per week, % of cases (Baseline, FAS): (62.09%) | SAQ 3rd question: ≧3 times per week, cases (Baseline, FAS): 1076 | SAQ 3rd question: ≧4 times per day, % of cases (Baseline, FAS): (3.17%) | SAQ 3rd question: ≧4 times per day, cases (Baseline, FAS): 55 | SAQ Question 1-3: Mildly limited, number of patients (Baseline, FAS): 149 | SAQ Question 1-3: Mildly limited, percent of patients (Baseline, FAS): (8.57%) | SAQ Question 1-3: Moderately limited, number of patients (Baseline, FAS): 53 | SAQ Question 1-3: Moderately limited, percent of patients (Baseline, FAS): (3.05%) | SAQ Question 1-3: Not limited, number of patients (Baseline, FAS): 1170 | SAQ Question 1-3: Not limited, percent of patients (Baseline, FAS): (67.32%) | SAQ Question 1-3: Other reasons, number of patients (Baseline, FAS): 11 | SAQ Question 1-3: Other reasons, percent of patients (Baseline, FAS): (0.63%) | SAQ Question 1-3: Severely limited, number of patients (Baseline, FAS): 15 | SAQ Question 1-3: Severely limited, percent of patients (Baseline, FAS): (0.86%) | SAQ Question 1-3: Slightly limited, number of patients (Baseline, FAS): 340 | SAQ Question 1-3: Slightly limited, percent of patients (Baseline, FAS): (19.56%) | SAQ Question 1-4: Mildly limited, number of patients (Baseline, FAS): 402 | SAQ Question 1-4: Mildly limited, percent of patients (Baseline, FAS): (23.21%) | SAQ Question 1-4: Moderately limited, number of patients (Baseline, FAS): 208 | SAQ Question 1-4: Moderately limited, percent of patients (Baseline, FAS): (12.01%) | SAQ Question 1-4: Not limited, number of patients (Baseline, FAS): 495 | SAQ Question 1-4: Not limited, percent of patients (Baseline, FAS): (28.58%) | SAQ Question 1-4: Other reasons, number of patients (Baseline, FAS): 14 | SAQ Question 1-4: Other reasons, percent of patients (Baseline, FAS): (0.81%) | SAQ Question 1-4: Severely limited, number of patients (Baseline, FAS): 59 | SAQ Question 1-4: Severely limited, percent of patients (Baseline, FAS): (3.41%) | SAQ Question 1-4: Slightly limited, number of patients (Baseline, FAS): 554 | SAQ Question 1-4: Slightly limited, percent of patients (Baseline, FAS): (31.99%) | SAQ Question 1-5: Mildly limited, number of patients (Baseline, FAS): 357 | SAQ Question 1-5: Mildly limited, percent of patients (Baseline, FAS): (20.58%) | SAQ Question 1-5: Moderately limited, number of patients (Baseline, FAS): 238 | SAQ Question 1-5: Moderately limited, percent of patients (Baseline, FAS): (13.72%) | SAQ Question 1-5: Not limited, number of patients (Baseline, FAS): 567 | SAQ Question 1-5: Not limited, percent of patients (Baseline, FAS): (32.68%) | SAQ Question 1-5: Other reasons, number of patients (Baseline, FAS): 13 | SAQ Question 1-5: Other reasons, percent of patients (Baseline, FAS): (0.75%) | SAQ Question 1-5: Severely limited, number of patients (Baseline, FAS): 53 | SAQ Question 1-5: Severely limited, percent of patients (Baseline, FAS): (3.05%) | SAQ Question 1-5: Slightly limited, number of patients (Baseline, FAS): 507 | SAQ Question 1-5: Slightly limited, percent of patients (Baseline, FAS): (29.22%) | SAQ Question 1-9: Mildly limited, % of cases (Baseline, FAS): (14.70%) | SAQ Question 1-9: Mildly limited, cases (Baseline, FAS): 249 | SAQ Question 1-9: Moderately limited, % of cases (Baseline, FAS): (21.19%) | SAQ Question 1-9: Moderately limited, cases (Baseline, FAS): 359 | SAQ Question 1-9: Not limited, % of cases (Baseline, FAS): (2.36%) | SAQ Question 1-9: Not limited, cases (Baseline, FAS): 40
